Key:
[1] = molecular target: T1, 6-phosphofructo-2-kinase/fructose-2,6-bisphosphatase 3 (Homo sapiens, UniProt Q16875); assay: Inhibition of iPFK2 (unknown origin) assessed as reduction in enzyme-mediated fructose-6-phosphate phosphorylation by measuring ATP consumption incubated for 3 hrs by luciferase-luciferin-coupled chemiluminescence assay
[2] = molecular target: T1, 6-phosphofructo-2-kinase/fructose-2,6-bisphosphatase 3; assay: Inhibition of iPFK2 (unknown origin) assessed as reduction in enzyme-mediated fructose-6-phosphate phosphorylation by measuring NADH absorbance pre-incubated for 10 mins before ATP/substrate addition followed by incubation for 1 hr by UV-Visible spectrometry based iPFK-2/PPI-PFK coupled enzyme assay

T1 sequence (Q16875 whole entry): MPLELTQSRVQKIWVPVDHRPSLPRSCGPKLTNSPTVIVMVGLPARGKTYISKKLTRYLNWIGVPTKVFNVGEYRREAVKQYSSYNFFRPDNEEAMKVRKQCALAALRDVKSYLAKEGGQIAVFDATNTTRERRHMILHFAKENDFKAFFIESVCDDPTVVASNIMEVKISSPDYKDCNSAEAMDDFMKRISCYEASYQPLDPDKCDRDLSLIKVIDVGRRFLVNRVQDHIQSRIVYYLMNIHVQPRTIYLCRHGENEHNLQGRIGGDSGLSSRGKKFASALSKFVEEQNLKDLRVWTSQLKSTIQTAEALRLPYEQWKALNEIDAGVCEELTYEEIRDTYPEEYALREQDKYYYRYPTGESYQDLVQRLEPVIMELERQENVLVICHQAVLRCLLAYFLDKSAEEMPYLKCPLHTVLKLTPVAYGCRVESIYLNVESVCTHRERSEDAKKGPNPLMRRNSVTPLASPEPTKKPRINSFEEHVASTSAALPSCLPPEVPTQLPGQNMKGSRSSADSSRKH

Row | IC50 [1] [nM] | IC50 [2] [nM] | SMILES
1 | > 1000 | 500 | Cc1nc(NC(C)c2cccc(-c3ccc[nH]3)c2)cc(-c2ccc3ncsc3c2)n1 (centres undefined)
2 | > 1000 | 500 | Cc1nc(NC(C)c2cccc(-c3c(C)noc3C)c2)cc(-c2ccc3ncsc3c2)n1 (centres undefined)
3 | > 1000 | 500 | Cc1nc(NC(C)c2cccc(N)c2)cc(-c2ccc3ncsc3c2)n1 (centres undefined)
4 | > 1000 | > 1000 | Cc1nc(NC(C)c2cccc(-c3cccc(F)c3)c2)cc(-c2ccc3ncsc3c2)n1 (centres undefined)
5 | 500 | 500 | Cc1nc(NC(C)c2cccc([N+](=O)[O-])c2)cc(-c2ccc3ncsc3c2)n1 (centres undefined)
6 | > 1000 | 500 | COc1ccc(-c2cccc(C(C)Nc3cc(-c4ccc5ncsc5c4)nc(C)n3)c2)cn1 (centres undefined)
7 | > 1000 | 500 | CCOC(=O)c1cncc(-c2cccc(C(C)Nc3cc(-c4ccc5ncsc5c4)nc(C)n3)c2)c1 (centres undefined)
8 | 500 | 500 | Cc1cc(-c2cccc(C(C)Nc3cc(-c4ccc5ncsc5c4)nc(C)n3)c2)ccn1 (centres undefined)
9 | > 1000 | > 1000 | Cc1nc(N[C@@H](C)c2ccccc2)cc(-c2ccc3ncsc3c2)n1
10 | > 1000 | > 1000 | Cc1nc(NC(C)c2cccc(-c3ccoc3)c2)cc(-c2ccc3ncsc3c2)n1 (centres undefined)
11 | 500 | 500 | Cc1nc(NC(C)c2cccc(-c3ccc(N(C)C)nc3)c2)cc(-c2ccc3ncsc3c2)n1 (centres undefined)
12 | > 1000 | > 1000 | Cc1nc(NC(C)c2cccc(-c3ccsc3)c2)cc(-c2ccc3ncsc3c2)n1 (centres undefined)
13 | > 1000 | 500 | Cc1nc(NC(C)c2cccc(-c3cccnc3F)c2)cc(-c2ccc3ncsc3c2)n1 (centres undefined)

The remaining lines, values behind:

Row | SMILES | IC50 [1] [nM] | IC50 [2] [nM]
14 | COc1cccc(-c2cc(NC(C)c3cccc(-c4cnn(C)c4)c3)nc(C)n2)c1F (centres undefined) | 500 | > 1000
15 | CCc1coc2ccc(-c3cc(N[C@@H](C)c4cccc(Br)c4)nc(C)n3)cc12 | > 1000 | 500
16 | Cc1nc(NC(C)c2cccc(-c3cnn(C)c3)c2)cc(-c2ccc(C(F)(F)F)cc2)n1 (centres undefined) | > 1000 | > 1000
17 | Cc1nc(NC(C)c2cccc(OCc3nc(C(=O)O)co3)c2)cc(-c2ccc3ncsc3c2)n1 (centres undefined) | 500 | > 1000
18 | Cc1nc(NC(C)c2cccc(OCC(F)(F)F)c2)cc(-c2ccc3ncsc3c2)n1 (centres undefined) | > 1000 | 500
19 | Cc1nc(NC(C)c2cccc(OCC(=O)NC3CCCCC3)c2)cc(-c2ccc3ncsc3c2)n1 (centres undefined) | 500 | 500
20 | Cc1nc(NCc2ccccc2F)cc(-c2ccc3ncsc3c2)n1 | 500 | > 1000
21 | Cc1nc(NC(C)c2ccc(F)c(Br)c2)cc(-c2ccc3occ(C)c3c2)n1 (centres undefined) | > 1000 | 500
22 | Cc1nc(NC(C)c2cccc(OCCS(C)(=O)=O)c2)cc(-c2ccc3ncsc3c2)n1 (centres undefined) | > 1000 | > 1000
23 | Cc1nc(N[C@@H]2CCCc3ccccc32)cc(-c2cnc3ccccc3c2)n1 | 500 | > 1000
24 | COC(=O)COc1ccc(F)c(CNc2cc(-c3ccc4ncsc4c3)nc(C)n2)c1 | > 1000 | > 1000
25 | Cc1nc(NC(C)c2cccc(OCC3CCCN(C(=O)OC(C)(C)C)C3)c2)cc(-c2ccc3occ(C)c3c2)n1 (centres undefined) | > 1000 | 500
26 | COc1ccc(F)c(CNc2cc(-c3ccc4ncsc4c3)nc(C)n2)c1 | 500 | > 1000
27 | Cc1cc(COc2ccc(F)c(CNc3cc(-c4ccc5ncsc5c4)nc(C)n3)c2)n(C)n1 | > 1000 | > 1000
28 | Cc1nc(NCC2CCCN(C(=O)C3CCCC3)C2)cc(-c2ccc3ncsc3c2)n1 (centres undefined) | 500 | > 1000
29 | Cc1ccc(OCc2noc(COc3cccc(C(C)Nc4cc(-c5ccc6ncsc6c5)nc(C)n4)c3)n2)cc1 (centres undefined) | > 1000 | > 1000
30 | Cc1nc(NC(C)c2cccc(-c3cnn(C)c3)c2)cc(-c2ccc(F)c(C)c2)n1 (centres undefined) | > 1000 | 500
31 | Cc1nc(NCC2CCCNC2)cc(-c2ccc3ncsc3c2)n1 (centres undefined) | > 1000 | > 1000
32 | Cc1ccc(COc2cccc(C(C)Nc3cc(-c4ccc5ncsc5c4)nc(C)n3)c2)cc1 (centres undefined) | > 1000 | > 1000
33 | Cc1nc(N[C@H](C)c2cccc(-n3cnnn3)c2)cc(-c2ccc3occ(C)c3c2)n1 | 500 | > 1000
34 | COC(=O)c1coc(COc2cccc(C(C)Nc3cc(-c4ccc5ncsc5c4)nc(C)n3)c2)n1 (centres undefined) | > 1000 | > 1000
35 | Cc1nc(NC(C)c2ccccc2C)cc(-c2ccc3occ(C)c3c2)n1 (centres undefined) | > 1000 | > 1000
36 | Cc1nc(NCC2CCCN(C(=O)C3(C)CC3)C2)cc(-c2ccc3ncsc3c2)n1 (centres undefined) | 500 | > 1000
37 | Cc1nc(NC(C)c2cccc(-c3cnn(C)c3)c2)cc(-c2ccc(C(C)C)cc2)n1 (centres undefined) | > 1000 | 500
38 | Cc1nc(NC(C)c2cccc(OCCn3cccn3)c2)cc(-c2ccc3ncsc3c2)n1 (centres undefined) | > 1000 | 500
39 | COc1cccc([C@H](C)Nc2cc(-c3cnc4ccn(C)c4c3)nc(C)n2)c1 | > 1000 | > 1000
40 | Cc1nc(NCc2cc(Br)ccc2F)cc(-c2ccc3ncsc3c2)n1 | > 1000 | > 1000
41 | Cc1nc(N[C@H](C)c2ccc(F)c(-c3cnn(C)c3)c2)cc(-c2ccc3occ(C)c3c2)n1 | > 1000 | 500
42 | COC(=O)COc1cccc(C(C)Nc2cc(-c3ccc4ncsc4c3)nc(C)n2)c1 (centres undefined) | > 1000 | > 1000

Reference: ChEMBL document CHEMBL3727358, “Inhibitors of inducible form of 6-phosphofructose-2-kinase” (2014)
